Data from PubChem BioAssay (NCI).
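Each compound was tested at five concentrations against cells in 96-well plates for 48 hours. TGI is the concentration that stops growth completely.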

Legend:
Experiment in all cases: NCI tumour cell line growth inhibition, 48 h
UACC-257 melanoma = test system: UACC-257 melanoma
HCC-2998 colon = test system: HCC-2998 colon
HCT-15 colon = test system: HCT-15 colon
KM12 colon = test system: KM12 colon
NCI-H226 lung = test system: NCI-H226 lung
COLO 205 colon = test system: COLO 205 colon
BT-549 breast = test system: BT-549 breast
RPMI-8226 leukemia = test system: RPMI-8226 leukemia
SK-MEL-5 melanoma = test system: SK-MEL-5 melanoma
OVCAR-4 ovarian = test system: OVCAR-4 ovarian
IGROV1 ovarian = test system: IGROV1 ovarian
HOP-92 NSCLC = test system: HOP-92 NSCLC
UO-31 renal = test system: UO-31 renal
K-562 leukemia = test system: K-562 leukemia

SMILES | TGI (UACC-257 melanoma) [µM] | TGI (HCC-2998 colon) [µM] | TGI (HCT-15 colon) [µM] | TGI (KM12 colon) [µM] | TGI (NCI-H226 lung) [µM] | TGI (COLO 205 colon) [µM] | TGI (BT-549 breast) [µM] | TGI (RPMI-8226 leukemia) [µM] | TGI (SK-MEL-5 melanoma) [µM] | TGI (OVCAR-4 ovarian) [µM] | TGI (IGROV1 ovarian) [µM] | TGI (HOP-92 NSCLC) [µM] | TGI (UO-31 renal) [µM] | TGI (K-562 leukemia) [µM]
COC1=C(Cl)C(=O)c2c(O)ccc(O)c2C1=O | 3.41 | 27.3 | 3.23 | 23.5 | 26.1 | 0.53 | 3.31 | 1.45 | 2.75 | 3.66 | 3.72 | 3.61 | 3.71 | –
O=C(C/C(=N/O)C(F)(F)F)c1cccs1 | > 100 | > 100 | > 100 | > 100 | > 100 | > 100 | > 100 | > 100 | > 100 | > 100 | > 100 | > 100 | > 100 | > 100
CN(C)CCOc1ccc(-c2c(Oc3ccccc3)c(=O)oc3ccccc23)cc1 | 19.5 | 20.8 | 22.6 | 77.8 | 31.6 | 24.7 | 26.6 | 40.8 | 13.1 | 59 | 25.2 | 32.7 | 19.9 | 23
CCN(CC)c1ccc(/C=C2\CCc3ccc([N+](=O)[O-])cc3C2=O)cc1 | – | > 100 | > 100 | > 100 | > 100 | > 100 | > 100 | > 100 | > 100 | > 100 | > 100 | > 100 | > 100 | > 100
O=c1c2cnccc2cc2c3ccccc3ccn12 | > 100 | > 100 | > 100 | > 100 | > 100 | > 100 | > 100 | > 100 | > 100 | > 100 | 33.3 | > 100 | > 100 | > 100
CO/N=C(\C([O-])=N\[n+]1cnn(CC(=O)OC(C)(C)C)c1)c1csc(NC(c2ccccc2)(c2ccccc2)c2ccccc2)n1 | > 10 | > 10 | > 10 | > 10 | > 10 | > 10 | > 10 | > 10 | > 10 | > 10 | > 10 | > 10 | > 10 | > 10
CCOC1NC(=O)Oc2cc3ccccc3cc21 (stereo not drawn) | > 100 | > 100 | > 100 | > 100 | > 100 | > 100 | > 100 | > 100 | > 100 | > 100 | > 100 | 82.8 | > 100 | > 100
CCN(CC)CC1CN=C(N)O1 (stereo not drawn) | > 100 | > 100 | > 100 | > 100 | > 100 | > 100 | > 100 | > 100 | > 100 | > 100 | > 100 | > 100 | > 100 | > 100
CC(=O)O[C@H]1C[C@@H](OC(C)=O)[C@@](C)(O)[C@@H]2[C@@H](OC(C)=O)[C@@]3(O)[C@H](/C=C(/CO)[C@H]4O[C@H]4[C@@H](OC(C)=O)[C@@]12C)OC(=O)[C@@H]3C | > 25 | > 25 | > 25 | > 25 | > 25 | > 25 | > 25 | > 25 | > 25 | > 25 | > 25 | > 25 | > 25 | > 25
Cc1ccc(-c2cc[n+]3c(n2)oc2ccccc23)cc1 | 59.2 | > 100 | > 100 | > 100 | – | 68.5 | 76.6 | 54.4 | – | 48.8 | > 100 | 47.3 | > 100 | 22.5
COc1cc(Cc2cnc(N)nc2N)cc(OC)c1OCCCNc1ccc([N+](=O)[O-])cc1 | 25.9 | 31.4 | 37.8 | 32.2 | 28.4 | 27.4 | 31.1 | – | 18.9 | 33.6 | 28.3 | 36.4 | 26.5 | > 100
CC1(C)C2CCC1C(=O)[C@@]1(C=CC(=O)CC1)C2 (stereo partly drawn) | > 100 | > 100 | > 100 | > 100 | > 100 | > 100 | > 100 | > 100 | > 100 | > 100 | > 100 | > 100 | > 100 | > 100
O=[N+]([O-])c1cc(F)ccc1S(=O)(=O)c1ccccc1 | > 10 | > 10 | > 10 | > 10 | > 10 | > 10 | > 10 | > 10 | > 10 | > 10 | > 10 | > 10 | – | > 10
O=C(CN1CCCCC1)Nc1ccc2c(c1)C1Oc3ccccc3CC1CO2 (stereo not drawn) | 36 | 34.4 | 35.1 | 49.9 | 55.8 | 26.2 | 44.6 | > 100 | 26.7 | – | 58 | 54.7 | 72.7 | > 100
CCN(CC)CCn1c(=O)c2c(C)c3oc4ccccc4oc3c(C)c2c1=O | > 100 | > 100 | > 100 | > 100 | > 100 | > 100 | > 100 | > 100 | > 100 | > 100 | > 100 | > 100 | – | > 100
CC(=O)O[C@H]1C(=O)[C@@]2(C)[C@H]([C@H](OC(=O)c3ccccc3)[C@]3(O)C[C@H](OC(=O)[C@H](O)[C@@H](NC(=O)c4ccccc4)c4cccc(N(C)C)c4)C(C)=C1C3(C)C)[C@]1(OC(C)=O)CO[C@@H]1C[C@@H]2O | > 75 | – | 74.5 | > 24.7 | 29 | 0.285 | 3.51 | 0.236 | 11.3 | > 43.6 | > 75 | > 75 | > 64.6 | > 75
CCOC(=O)[C@@]1(C)CC(O)C(=O)N1C (stereo partly drawn) | > 100 | > 100 | > 100 | > 100 | > 100 | > 100 | > 100 | > 100 | > 100 | > 100 | > 100 | > 100 | > 100 | –

SMILES | TGI (UACC-257 melanoma) [µM] | TGI (HCC-2998 colon) [µM] | TGI (HCT-15 colon) [µM] | TGI (KM12 colon) [µM] | TGI (NCI-H226 lung) [µM] | TGI (COLO 205 colon) [µM] | TGI (BT-549 breast) [µM] | TGI (RPMI-8226 leukemia) [µM] | TGI (SK-MEL-5 melanoma) [µM] | TGI (OVCAR-4 ovarian) [µM] | TGI (IGROV1 ovarian) [µM] | TGI (HOP-92 NSCLC) [µM] | TGI (UO-31 renal) [µM] | TGI (K-562 leukemia) [µM]
O=c1[nH]nc(Nc2ccccc2)c2nnn(C3CCCCC3)c12 | > 100 | > 100 | > 100 | > 100 | – | > 100 | > 100 | > 100 | > 100 | > 100 | – | > 100 | > 100 | > 100
N#Cc1cc(Sc2ccc(N)c(C#N)c2)ccc1N | > 100 | – | 38.9 | 24.9 | 81 | 23.7 | > 100 | 59.2 | 39 | 98.8 | > 100 | > 100 | > 100 | 60.2
O=C1CSC(c2ccc([N+](=O)[O-])cc2)N1c1ccc(-c2ccc(-n3c(-c4ccccc4)nc4ccccc4c3=O)cc2)cc1 (stereo not drawn) | > 100 | > 100 | > 100 | > 100 | > 100 | > 100 | > 100 | > 100 | 62 | > 100 | – | > 100 | > 100 | > 100
c1ccc(Nc2nn3c(CCCCCCCCc4nnc5sc(Nc6ccccc6)nn45)nnc3s2)cc1 | > 100 | > 100 | > 100 | > 100 | > 100 | 42.8 | > 100 | > 100 | 24.6 | > 100 | – | > 100 | 69.9 | 37.6
CCCCCCCCCCCCCCCCCCNC(=S)/N=C/c1c(O)c2ccccc2[nH]c1=O | 37.1 | 31.1 | 29.4 | 30.9 | 63.3 | 32.9 | 38 | – | 70.7 | 41 | 21.2 | 32.7 | 32.6 | –
COC(=O)c1c(C)cccc1C1CN=NC12Cc1cc(C)cc(C)c1C2=O (stereo not drawn) | 80.3 | 68 | > 100 | > 100 | > 100 | 31.9 | > 100 | – | 44.6 | > 100 | > 100 | 64.2 | > 100 | > 100
C=CC(=O)N1C/C(=C\c2ccc([N+](=O)[O-])cc2)C(=O)/C(=C/c2ccc([N+](=O)[O-])cc2)C1 | 3.25 | 1.21 | 0.272 | 0.607 | 1.05 | 0.273 | 0.567 | > 100 | 2.54 | 1.33 | 0.419 | 2.98 | 0.375 | –
CC1SC2(CCCCC2)N(NC(=O)CSc2nc3ccc(Cl)cc3c(=O)n2-c2ccccc2)C1=O (stereo not drawn) | 55.5 | 41.8 | 45.2 | > 100 | – | 29.2 | 36.4 | – | 27.9 | > 100 | 39.4 | 52.5 | 40.4 | 73.8
CN(CCCNC(=O)c1nn(C)c2c1Cc1ccccc1-2)CCCNC(=O)c1nn(C)c2c1Cc1ccccc1-2 | 30.1 | 23.5 | 40.4 | 35.4 | – | 30.2 | 47.2 | 35.9 | 29.8 | 32.5 | 35 | 35 | 5.58 | 25.6
Cc1nc2c(cc1OCc1ccccc1)C(=O)C1=C(C2=O)C2OC(=O)CC2OC1(C)C (stereo not drawn) | 1.93 | 1.91 | 0.634 | 2 | 2.98 | 1.15 | 1.88 | > 100 | 2.61 | 1.94 | 1.31 | 1.42 | 3.24 | –
Nc1ccc2ccc(N3CCNCC3)nc2n1 | > 100 | > 100 | > 100 | > 100 | 85.2 | > 100 | > 100 | > 100 | – | > 100 | > 100 | > 100 | > 100 | > 100
Cc1ccc(NC(=O)/C(Cc2cc(=O)oc3cc(O)ccc23)=N\NC(C)(C)C)cc1C | > 100 | > 100 | > 100 | > 100 | > 100 | > 100 | > 100 | > 100 | > 100 | > 100 | – | > 100 | > 100 | > 100
CCC(CC)(CO)CNc1cc(Cl)nc(N)n1 | > 100 | – | > 100 | > 100 | > 100 | > 100 | > 100 | > 100 | > 100 | > 100 | > 100 | > 100 | > 100 | > 100
Nn1c(=O)[nH]c2ncn(Cc3ccccc3)c2c1=O | > 100 | > 100 | > 100 | > 100 | > 100 | > 100 | > 100 | – | > 100 | > 100 | > 100 | > 100 | > 100 | > 100
COC(=O)C(Cc1c[nH]c2ccccc12)NP(=O)(O)OCC1OC(n2cc(Br)c(=O)[nH]c2=O)CC1O (stereo not drawn) | > 100 | > 100 | > 100 | > 100 | > 100 | > 100 | > 100 | – | > 100 | > 100 | > 100 | > 100 | > 100 | > 100
COc1cccc2cc(C(=O)Nc3ccccc3)c(=N)oc12 | > 100 | – | > 100 | > 100 | > 100 | > 100 | > 100 | > 100 | > 100 | > 100 | > 100 | > 100 | > 100 | > 100
